In ChEMBL document CHEMBL3588828, “A Selective, Cell-Permeable Nonphosphorylated Bicyclic Peptidyl Inhibitor against Peptidyl-Prolyl Isomerase Pin1” (J Med Chem, 2015):
Calls of active or inactive are those of the source. No cut-off for these calls is given here.

What was measured:
[1] = tested on: Peptidyl-prolyl cis-trans isomerase NIMA-interacting 1 (Homo sapiens), Q13526 [S16A,Y23A]; test: Binding affinity to N-terminal MBP fused and Texas-red-labeled full-length human Pin1 S16A/Y23A mutant expressed in Escherichia coli assessed as increase in fluorescence anisotropy at 5 uM by spectrofluorimetry
[2] = target: Peptidyl-prolyl cis-trans isomerase NIMA-interacting 1 (Homo sapiens, UniProt Q13526, S16A/Y23A); test: Binding affinity to N-terminal MBP fused and Texas-red-labeled full-length human Pin1 S16A/Y23A mutant expressed in Escherichia coli assessed as increase in fluorescence anisotropy by spectrofluorimetry
HeLa [3] = test: Drug uptake in human HeLa cells assessed as mean fluorescence intensity at 5 uM using FITC-labeled compound incubated for 2 hrs by flow cytometry (reference value: 86); format: ADME, cell-based
HeLa [4] = test: Growth inhibition of human HeLa cells at 5 uM incubated for 3 days by MTT assay; format: functional
HeLa [5] = test: Antiproliferative activity against human HeLa cells assessed as reduction in cell growth incubated for 72 hrs by MTT assay; format: functional, cell-based; conditions: hela
[6] = target: Peptidyl-prolyl cis-trans isomerase NIMA-interacting 1 (Homo sapiens) (UniProt Q13526); test: Inhibition of Pin1 in human HeLa cells assessed as increase in PML protein levels at 0.2 to 5 uM incubated for 2 hrs by Western blotting method relative to untreated control; format: cell-based

Row | Compound | Activity [1] | Kd ([2]; read-out: Kd) | other results
1 | C[C@@H]1NC(=O)[C@H](CCCNC(=N)N)NC(=O)[C@H](Cc2ccc3ccccc3c2)NC(=O)[C@H]2CCCCN2C(=O)[C@@H]([C@H](C)O)NC(=O)[C@H](c2ccccc2)NC(=O)[C@H](Cc2cnc[nH]2)NC(=O)c2cc3cc(c2)C(=O)NC[C@H](NC(=O)[C@@H](C)NC1=O)C(=O)N[C@@H](Cc1ccccc1)C(=O)N[C@@H](Cc1ccc2ccccc2c1)C(=O)N[C@@H](CCCNC(=N)N)C(=O)N[C@@H](CCCNC(=N)N)C(=O)N[C@@H](CCCNC(=N)N)C(=O)N[C@@H](CCCNC(=N)N)C(=O)N[C@H](C(=O)N[C@@H](CCCCN)C(=O)O)CNC3=O | > 50% | 1.4 µM | –
2 | C[C@@H]1NC(=O)[C@H](CCCNC(=N)N)NC(=O)[C@H](Cc2ccc3ccccc3c2)NC(=O)[C@H]2CCCCN2C(=O)[C@@H]([C@H](C)O)NC(=O)CNC(=O)[C@H](Cc2ccccc2)N(C)C(=O)c2cc3cc(c2)C(=O)NC[C@H](NC(=O)[C@@H](C)NC1=O)C(=O)N[C@@H](Cc1ccccc1)C(=O)N[C@@H](Cc1ccc2ccccc2c1)C(=O)N[C@@H](CCCNC(=N)N)C(=O)N[C@@H](CCCNC(=N)N)C(=O)N[C@@H](CCCNC(=N)N)C(=O)N[C@@H](CCCNC(=N)N)C(=O)N[C@H](C(=O)N[C@@H](CCCCN)C(=O)O)CNC3=O | > 50% | 1.08 µM | –
3 | C[C@H](OP(=O)(O)O)[C@H]1NC(=O)CN(C)C(=O)[C@@H](C)NC(=O)[C@H](CCCCN)NC(=O)[C@H](Cc2ccc(O)cc2)NC(=O)[C@H](Cc2ccc3ccccc3c2)NC(=O)[C@H]2CCCCN2C1=O | – | 0.24 µM | Flu intensity (HeLa [3]): 193; growth inhibition (GI) (HeLa [4]): inactive; IC50 (HeLa [5]): Not Active
4 | C[C@@H]1NC(=O)[C@H](CCCNC(=N)N)NC(=O)[C@H](Cc2ccc3ccccc3c2)NC(=O)[C@H]2CCCCN2C(=O)[C@@H](CCC(=O)O)NC(=O)[C@H](Cc2cnc[nH]2)NC(=O)[C@H](c2ccccc2)NC(=O)c2cc3cc(c2)C(=O)NC[C@H](NC(=O)[C@@H](C)NC1=O)C(=O)N[C@@H](Cc1ccccc1)C(=O)N[C@@H](Cc1ccc2ccccc2c1)C(=O)N[C@@H](CCCNC(=N)N)C(=O)N[C@@H](CCCNC(=N)N)C(=O)N[C@@H](CCCNC(=N)N)C(=O)N[C@@H](CCCNC(=N)N)C(=O)N[C@H](C(=O)N[C@@H](CCCCN)C(=O)O)CNC3=O | > 50% | 1.47 µM | –
5 | CC[C@H](C)[C@@H]1NC(=O)[C@H](Cc2ccccc2)N(C)C(=O)c2cc3cc(c2)C(=O)NC[C@H](NC(=O)[C@@H](C)NC(=O)[C@H](C)NC(=O)[C@H](CCCNC(=N)N)NC(=O)[C@H](Cc2ccc4ccccc4c2)NC(=O)[C@H]2CCCCN2C(=O)[C@@H](CCC(=O)O)NC1=O)C(=O)N[C@@H](Cc1ccccc1)C(=O)N[C@@H](Cc1ccc2ccccc2c1)C(=O)N[C@@H](CCCNC(=N)N)C(=O)N[C@@H](CCCNC(=N)N)C(=O)N[C@@H](CCCNC(=N)N)C(=O)N[C@@H](CCCNC(=N)N)C(=O)N[C@H](C(=O)N[C@@H](CCCCN)C(=O)O)CNC3=O | > 50% | 1.25 µM | –
6 | C[C@H]1NC(=O)[C@H](CCCNC(=N)N)NC(=O)[C@H](CCCNC(=N)N)NC(=O)[C@H](Cc2ccc3ccccc3c2)NC(=O)[C@H]2CCCCN2C(=O)[C@@H](CC(=O)O)NC(=O)CN(C)C(=O)[C@@H]2CCCN2C(=O)c2cc3cc(c2)C(=O)NC[C@H](NC1=O)C(=O)N[C@@H](Cc1ccccc1)C(=O)N[C@@H](Cc1ccc2ccccc2c1)C(=O)N[C@@H](CCCNC(=N)N)C(=O)N[C@@H](CCCNC(=N)N)C(=O)N[C@@H](CCCNC(=N)N)C(=O)N[C@@H](CCCNC(=N)N)C(=O)N[C@H](C(=O)N[C@@H](CCCCN)C(=O)O)CNC3=O | – | 0.72 µM | –
7 | C[C@@H]1NC(=O)[C@H](CCCNC(=N)N)NC(=O)[C@H](Cc2ccc3ccccc3c2)NC(=O)[C@@H](C)NC(=O)[C@@H]([C@H](C)O)NC(=O)CN(C)C(=O)[C@@H](C)NC(=O)c2cc3cc(c2)C(=O)NC[C@H](NC(=O)[C@@H](C)NC1=O)C(=O)N[C@@H](Cc1ccccc1)C(=O)N[C@@H](Cc1ccc2ccccc2c1)C(=O)N[C@@H](CCCNC(=N)N)C(=O)N[C@@H](CCCNC(=N)N)C(=O)N[C@@H](CCCNC(=N)N)C(=O)N[C@@H](CCCNC(=N)N)C(=O)N[C@H](C(=O)N[C@@H](CCCCN)C(=O)O)CNC3=O | – | – | inhibition [6]: inactive; Flu intensity (HeLa [3]): 8730; growth inhibition (GI) (HeLa [4]): inactive; IC50 (HeLa [5]): Not Active; Kd [2]: Not Active
8 | C[C@@H]1NC(=O)[C@H](CCCNC(=N)N)NC(=O)[C@H](Cc2ccc3ccccc3c2)NC(=O)[C@H]2CCCCN2C(=O)[C@@H]([C@H](C)O)NC(=O)[C@H](Cc2ccc(F)cc2)NC(=O)[C@@H](Cc2ccccc2)NC(=O)c2cc3cc(c2)C(=O)NC[C@H](NC(=O)[C@@H](C)NC1=O)C(=O)N[C@@H](Cc1ccccc1)C(=O)N[C@@H](Cc1ccc2ccccc2c1)C(=O)N[C@@H](CCCNC(=N)N)C(=O)N[C@@H](CCCNC(=N)N)C(=O)N[C@@H](CCCNC(=N)N)C(=O)N[C@@H](CCCNC(=N)N)C(=O)N[C@H](C(=O)N[C@@H](CCCCN)C(=O)O)CNC3=O | – | 0.67 µM | –
